Literature values as cited in US6150513A, “Polyketide synthase enzymes and recombinant DNA constructs therefor” (Kosan Biosciences, Inc., priority 1998, dated 2000).
Where two headings read alike, the source gives them in different places.

What was measured:
[1] = test system: FKBP
[2] = test system: nigral-striatal dopamine neurons; details: administration of FKBP ligand
[3] = test system: sensory neurons; details: compared with FK-506, FK-520 and rapamycin; Steiner et al., 1997
[4] = test system: splenocyte proliferation; details: Luengo et al., 1995

For COC1CC2CCC(C)C(O)(O2)C(=O)C(=O)N2CCCCC2C(=O)NC(CCc2ccccc2)C(=O)NCC(=O)N(C)CC(=O)OC1C (stereo not drawn) [compound 3], the “binding to FKBP, poorer than FK-506” value ([1]; relative to FK-506) is listed as “about 20 fold”.

For CCC(C)(C)C(=O)C(=O)N1CCC[C@H]1C(=O)OCCCc1cccnc1 [GPI-1046], the “effect in primate MPTP model” value [2] is given as “caused brain cells to regenerate and behavioral measures to improve”.

In the case of CC1(C)COC(=O)CCCCCCOc2cccc(c2)[C@@H](CCc2ccccc2)OC(=O)[C@@H]2CCCCN2C(=O)C1=O [compound 2], the “binding to FKBP compared with FK-506” value ([1]; in words) is given as “about as well as FK-506”.

In the case of CO[C@H]1C[C@@H]2CC[C@@H](C)[C@@](O)(O2)C(=O)C(=O)N2CCCC[C@H]2C(=O)O[C@H]([C@H](C)C[C@@H]2CC[C@@H](O)[C@H](OC)C2)CC(=O)[C@H](C)/C=C(\C)[C@@H](O)[C@@H](OC)C(=O)[C@H](C)C[C@H](C)C2C=CC(/C=C/1C)n1c(=O)n(-c3ccccc3)c(=O)n12 [WAY-124,466], the “promoting neurite outgrowth in sensory neurons” value [3] is listed as “about as effective as FK-506, FK-520, and rapamycin” and the IC50 ([1]; see Ocain et al., 1993, target not given, context FKBP binding, read-out: IC50) is listed as 12.5 nM.

In the case of CC[C@@H]1/C=C(\C)C(O)[C@H](C)C[C@H](OC)[C@H]2O[C@@](O)(C(=O)C(=O)N3CCCC[C@H]3C(=O)O[C@H](/C(C)=C/[C@@H]3CC[C@@H](O)[C@H](OC)C3)[C@H](C)[C@@H](O)CC1=O)[C@H](C)C[C@@H]2OC (stereo partly drawn) [L-685,818], the “promoting neurite outgrowth in sensory neurons” value [3] is listed as “about as effective as FK-506, FK-520, and rapamycin” and the IC50 ([1]; see Dumont et al., 1992, read-out: ED50 for FKBP binding) is listed as 0.7 nM.

In the case of COC(=O)N[C@H]1C[C@@H]2CC[C@@H](C)[C@@](O)(O2)C(=O)C(=O)N2CCCC[C@H]2C(=O)O[C@H]([C@H](C)C[C@@H]2CC[C@@H](O)[C@H](OC)C2)CC(=O)[C@H](C)/C=C(\C)[C@@H](O)[C@@H](OC)C(=O)[C@H](C)C[C@H](C)/C=C/C=C/C=C/1C [compound 1], the “reduction in binding to FKBP” value ([1]; relative to rapamycin, Luengo et al., 1995) is listed as 10 fold and the “activity in the splenocyte proliferation assay” value [4] is listed as “complete loss of activity”.
